Experimental data: PubChem BioAssay (NCI)
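Briefly, cells in 96-well plates were exposed to five compound concentrations for 48 h, and endpoints were estimated by linear interpolation. GI50: concentration for 50% inhibition of growth. TGI: concentration producing complete growth inhibition.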

How the values were obtained:
Experiment in all cases: NCI-60 cell line screen, 48 h
786-0 renal = test system: 786-0 renal
A498 renal = test system: A498 renal
ACHN renal = test system: ACHN renal
BT-549 breast = test system: BT-549 breast
CCRF-CEM leukemia = test system: CCRF-CEM leukemia
DU-145 prostate = test system: DU-145 prostate
HCT-116 colon = test system: HCT-116 colon
HCT-15 colon = test system: HCT-15 colon
HL-60(TB) leukemia = test system: HL-60(TB) leukemia
HOP-62 NSCLC = test system: HOP-62 NSCLC
IGROV1 ovarian = test system: IGROV1 ovarian
K-562 leukemia = test system: K-562 leukemia
KM12 colon = test system: KM12 colon
LOX IMVI melanoma = test system: LOX IMVI melanoma
MALME-3M melanoma = test system: MALME-3M melanoma
MDA-MB-231 breast = test system: MDA-MB-231 breast
NCI-H23 lung = test system: NCI-H23 lung
NCI-H460 lung = test system: NCI-H460 lung
NCI-H522 lung = test system: NCI-H522 lung
NCI/ADR-RES ovarian = test system: NCI/ADR-RES ovarian
OVCAR-3 ovarian = test system: OVCAR-3 ovarian
OVCAR-4 ovarian = test system: OVCAR-4 ovarian
OVCAR-5 ovarian = test system: OVCAR-5 ovarian
PC-3 prostate = test system: PC-3 prostate
RXF 393 renal = test system: RXF 393 renal
SF-268 CNS = test system: SF-268 CNS
SF-295 CNS = test system: SF-295 CNS
SNB-19 CNS = test system: SNB-19 CNS
SR leukemia = test system: SR leukemia
SW-620 colon = test system: SW-620 colon
T-47D breast = test system: T-47D breast
TK-10 renal = test system: TK-10 renal
U251 CNS = test system: U251 CNS
UACC-257 melanoma = test system: UACC-257 melanoma
UACC-62 melanoma = test system: UACC-62 melanoma
A549 NSCLC = test system: A549 NSCLC
CAKI-1 renal = test system: CAKI-1 renal
COLO 205 colon = test system: COLO 205 colon
EKVX NSCLC = test system: EKVX NSCLC
HCC-2998 colon = test system: HCC-2998 colon
HOP-92 NSCLC = test system: HOP-92 NSCLC
HT29 colon = test system: HT29 colon
M14 melanoma = test system: M14 melanoma
MCF7 breast = test system: MCF7 breast
MDA-MB-435 = test system: MDA-MB-435
MOLT-4 leukemia = test system: MOLT-4 leukemia
NCI-H226 lung = test system: NCI-H226 lung
OVCAR-8 ovarian = test system: OVCAR-8 ovarian
SF-539 CNS = test system: SF-539 CNS
SK-MEL-2 melanoma = test system: SK-MEL-2 melanoma
SK-MEL-28 melanoma = test system: SK-MEL-28 melanoma
SK-MEL-5 melanoma = test system: SK-MEL-5 melanoma
SK-OV-3 ovarian = test system: SK-OV-3 ovarian
SN12C renal = test system: SN12C renal
SNB-75 CNS = test system: SNB-75 CNS
UO-31 renal = test system: UO-31 renal

For `CCOC(=O)c1c(NC(=O)c2cccc(C(F)(F)F)c2)sc2c1CCC(=O)C2`, the GI50 (786-0 renal) was 3540 nM, the TGI (786-0 renal) was > 100 µM and the GI50 (A498 renal) was > 100000 nM. The TGI (A498 renal) was > 100 µM, the GI50 (ACHN renal) was 2650 nM and the TGI (ACHN renal) was > 100 µM. The GI50 (BT-549 breast) was 1610 nM, the TGI (BT-549 breast) was > 100 µM and the GI50 (CCRF-CEM leukemia) was 1030 nM. For the same compound, the TGI (CCRF-CEM leukemia) was > 100 µM, the GI50 (DU-145 prostate) was > 100 µM and the TGI (DU-145 prostate) was > 100 µM. For the same compound, the GI50 (HCT-116 colon) was 490 nM, the TGI (HCT-116 colon) was > 100 µM and the GI50 (HCT-15 colon) was 652 nM. For the same compound, the TGI (HCT-15 colon) was > 100 µM, the GI50 (HL-60(TB) leukemia) was 1900 nM and the TGI (HL-60(TB) leukemia) was > 100 µM. For the same compound, the GI50 (HOP-62 NSCLC) was 5.2 µM, the TGI (HOP-62 NSCLC) was > 100 µM and the GI50 (IGROV1 ovarian) was 2400 nM. For the same compound, the TGI (IGROV1 ovarian) was > 100 µM, the GI50 (K-562 leukemia) was 488 nM and the TGI (K-562 leukemia) was > 100 µM. For the same compound, the GI50 (KM12 colon) was 2.88 µM, the TGI (KM12 colon) was > 100 µM and the GI50 (LOX IMVI melanoma) was 633 nM. The TGI (LOX IMVI melanoma) was > 100 µM, the GI50 (MALME-3M melanoma) was > 100000 nM and the TGI (MALME-3M melanoma) was > 100 µM. For the same compound, the GI50 (MDA-MB-231 breast) was 3500 nM, the TGI (MDA-MB-231 breast) was > 100 µM and the GI50 (NCI-H23 lung) was 3 µM. The TGI (NCI-H23 lung) was > 100 µM, the GI50 (NCI-H460 lung) was 2660 nM and the TGI (NCI-H460 lung) was > 100 µM. The GI50 (NCI-H522 lung) was 514 nM, the TGI (NCI-H522 lung) was 6.81 µM and the GI50 (NCI/ADR-RES ovarian) was 3.06 µM. The TGI (NCI/ADR-RES ovarian) was > 100 µM, the GI50 (OVCAR-3 ovarian) was 3.53 µM and the TGI (OVCAR-3 ovarian) was > 100 µM. The GI50 (OVCAR-4 ovarian) was 3140 nM, the TGI (OVCAR-4 ovarian) was > 100 µM and the GI50 (OVCAR-5 ovarian) was 2120 nM. For the same compound, the TGI (OVCAR-5 ovarian) was > 100 µM, the GI50 (PC-3 prostate) was 1310 nM and the TGI (PC-3 prostate) was > 100 µM. It also gave a GI50 (RXF 393 renal) of 3.36 µM, a TGI (RXF 393 renal) of 9.03 µM and a GI50 (SF-268 CNS) of 4.17 µM. For the same compound, the TGI (SF-268 CNS) was > 100 µM, the GI50 (SF-295 CNS) was 3080 nM and the TGI (SF-295 CNS) was > 100 µM. For the same compound, the GI50 (SNB-19 CNS) was 1530 nM, the TGI (SNB-19 CNS) was > 100 µM and the GI50 (SR leukemia) was 526 nM. For the same compound, the TGI (SR leukemia) was > 100 µM, the GI50 (SW-620 colon) was 445 nM and the TGI (SW-620 colon) was > 100 µM. For the same compound, the GI50 (T-47D breast) was 2120 nM, the TGI (T-47D breast) was > 100 µM and the GI50 (TK-10 renal) was 5.09 µM. For the same compound, the TGI (TK-10 renal) was > 100 µM, the GI50 (U251 CNS) was 479 nM and the TGI (U251 CNS) was > 100 µM. The GI50 (UACC-257 melanoma) was > 100000 nM, the TGI (UACC-257 melanoma) was > 100 µM and the GI50 (UACC-62 melanoma) was 2110 nM. The TGI (UACC-62 melanoma) was > 100 µM.

Compound `CN1CCN(c2ccc(Nc3nc(NCCCNS(=O)(=O)c4ccc(C(F)(F)F)cc4)c4sccc4n3)cc2)CC1` has a GI50 (786-0 renal) of 1930 nM, a TGI (786-0 renal) of 3.79 µM and a GI50 (A498 renal) of 2160 nM. It also gave a TGI (A498 renal) of 3.99 µM, a GI50 (A549 NSCLC) of 3.71 µM and a TGI (A549 NSCLC) of 21.5 µM. It also gave a GI50 (ACHN renal) of 2690 nM, a TGI (ACHN renal) of 7.44 µM and a GI50 (BT-549 breast) of 1860 nM. It also gave a TGI (BT-549 breast) of 3.68 µM, a GI50 (CAKI-1 renal) of 3.05 µM and a TGI (CAKI-1 renal) of 11.3 µM. It also gave a GI50 (CCRF-CEM leukemia) of 3420 nM, a TGI (CCRF-CEM leukemia) of 17 µM and a GI50 (COLO 205 colon) of 2090 nM. It also gave a TGI (COLO 205 colon) of 4.12 µM, a GI50 (DU-145 prostate) of 5.11 µM and a TGI (DU-145 prostate) of 16.8 µM. For the same compound, the GI50 (EKVX NSCLC) was 3.73 µM, the TGI (EKVX NSCLC) was 14.6 µM and the GI50 (HCC-2998 colon) was 1980 nM. It also gave a TGI (HCC-2998 colon) of 3.98 µM, a GI50 (HCT-15 colon) of 1580 nM and a TGI (HCT-15 colon) of 3.08 µM. The GI50 (HL-60(TB) leukemia) was 1780 nM, the TGI (HL-60(TB) leukemia) was 3.87 µM and the GI50 (HOP-62 NSCLC) was 2.6 µM. It also gave a TGI (HOP-62 NSCLC) of 7.74 µM, a GI50 (HOP-92 NSCLC) of 1910 nM and a TGI (HOP-92 NSCLC) of 6.29 µM. For the same compound, the GI50 (HT29 colon) was 2110 nM, the TGI (HT29 colon) was 4.89 µM and the GI50 (IGROV1 ovarian) was 2380 nM. For the same compound, the TGI (IGROV1 ovarian) was 6.9 µM, the GI50 (K-562 leukemia) was 1840 nM and the TGI (K-562 leukemia) was 5.52 µM. For the same compound, the GI50 (KM12 colon) was 4.3 µM, the TGI (KM12 colon) was 20.9 µM and the GI50 (LOX IMVI melanoma) was 1640 nM. For the same compound, the TGI (LOX IMVI melanoma) was 3.02 µM, the GI50 (M14 melanoma) was 1890 nM and the TGI (M14 melanoma) was 3.59 µM. The GI50 (MALME-3M melanoma) was 1720 nM, the TGI (MALME-3M melanoma) was 3.13 µM and the GI50 (MCF7 breast) was 1740 nM. It also gave a TGI (MCF7 breast) of 3.32 µM, a GI50 (MDA-MB-231 breast) of 1880 nM and a TGI (MDA-MB-231 breast) of 3.51 µM. The GI50 (MDA-MB-435) was 1790 nM, the TGI (MDA-MB-435) was 3.24 µM and the GI50 (MOLT-4 leukemia) was 2130 nM. The TGI (MOLT-4 leukemia) was 7.32 µM, the GI50 (NCI-H226 lung) was 9.09 µM and the TGI (NCI-H226 lung) was 35 µM. The GI50 (NCI-H23 lung) was 3.41 µM, the TGI (NCI-H23 lung) was 11.5 µM and the GI50 (NCI-H460 lung) was 2280 nM. It also gave a TGI (NCI-H460 lung) of 4.75 µM, a GI50 (NCI-H522 lung) of 1770 nM and a TGI (NCI-H522 lung) of 3.7 µM. It also gave a GI50 (NCI/ADR-RES ovarian) of 3.17 µM, a TGI (NCI/ADR-RES ovarian) of 11.2 µM and a GI50 (OVCAR-3 ovarian) of 2.74 µM. It also gave a TGI (OVCAR-3 ovarian) of 6.89 µM, a GI50 (OVCAR-4 ovarian) of 2620 nM and a TGI (OVCAR-4 ovarian) of 8.12 µM. For the same compound, the GI50 (OVCAR-5 ovarian) was 3260 nM, the TGI (OVCAR-5 ovarian) was 13.4 µM and the GI50 (OVCAR-8 ovarian) was 3.58 µM. It also gave a TGI (OVCAR-8 ovarian) of 21.8 µM, a GI50 (PC-3 prostate) of 4270 nM and a TGI (PC-3 prostate) of 20.2 µM. The GI50 (SF-268 CNS) was 2.39 µM, the TGI (SF-268 CNS) was 9.5 µM and the GI50 (SF-295 CNS) was 1810 nM. It also gave a TGI (SF-295 CNS) of 3.51 µM, a GI50 (SF-539 CNS) of 1680 nM and a TGI (SF-539 CNS) of 3.05 µM. For the same compound, the GI50 (SK-MEL-2 melanoma) was 1780 nM, the TGI (SK-MEL-2 melanoma) was 3.46 µM and the GI50 (SK-MEL-28 melanoma) was 1630 nM. The TGI (SK-MEL-28 melanoma) was 3.02 µM, the GI50 (SK-MEL-5 melanoma) was 1780 nM and the TGI (SK-MEL-5 melanoma) was 3.2 µM. The GI50 (SK-OV-3 ovarian) was 12.7 µM, the TGI (SK-OV-3 ovarian) was 27.4 µM and the GI50 (SN12C renal) was 2220 nM. For the same compound, the TGI (SN12C renal) was 6.02 µM, the GI50 (SNB-19 CNS) was 3600 nM and the TGI (SNB-19 CNS) was 12.9 µM. For the same compound, the GI50 (SNB-75 CNS) was 14.5 µM, the TGI (SNB-75 CNS) was 28 µM and the GI50 (SR leukemia) was 2060 nM. For the same compound, the TGI (SR leukemia) was 6.39 µM, the GI50 (SW-620 colon) was 1890 nM and the TGI (SW-620 colon) was 3.58 µM. For the same compound, the GI50 (T-47D breast) was 1890 nM, the TGI (T-47D breast) was 4.09 µM and the GI50 (TK-10 renal) was 2.78 µM. It also gave a TGI (TK-10 renal) of 8.39 µM, a GI50 (U251 CNS) of 2620 nM and a TGI (U251 CNS) of 7.06 µM. It also gave a GI50 (UACC-257 melanoma) of 1920 nM, a TGI (UACC-257 melanoma) of 3.77 µM and a GI50 (UACC-62 melanoma) of 1680 nM. It also gave a TGI (UACC-62 melanoma) of 3.11 µM, a GI50 (UO-31 renal) of 1690 nM and a TGI (UO-31 renal) of 3.68 µM.
